The subject of series [1] is Mycobacterium tuberculosis. Put plainly: Antitubercular activity against Mycobacterium tuberculosis H37Rv after 28 days by Lowenstein-Jensen agar method. It is filed as functional. As to conditions: 672 h.
Series [2] has as its system Aspergillus niger. In words: Antifungal activity against Aspergillus niger MTCC 282 after overnight incubation by broth microdilution method. Format: functional. Background: Dilution methods test growth across graded concentrations, often in twofold steps.
A short description of series [3]: Selectivity index, ratio of CC50 for human MT4 cells to IC50 for HIV1 3B. Format: functional.
The test system of series [4] is Human immunodeficiency virus 1. Put plainly: Antiviral activity against Human immunodeficiency virus 1 IIIB infected MT4 cells assessed as inhibition of virus-induced cytopathogenicity after 5 days by MTT assay. To be noted: MT4, 120 h. Format: functional, organism-based. (Cytopathic effects are the visible damage that an infection or toxin causes in cultured cells.)

In series [5] the test system is Staphylococcus aureus. Put plainly: Antibacterial activity against Staphylococcus aureus MTCC 96 after overnight incubation by broth microdilution method. It is filed as functional.
The subject of series [6] is Escherichia coli. Put plainly: Antibacterial activity against Escherichia coli MTCC 442 after overnight incubation by broth microdilution method. Format: functional.
Series [7] relates to Pseudomonas aeruginosa. In words: Antibacterial activity against Pseudomonas aeruginosa MTCC 2488 after overnight incubation by broth microdilution method. It is filed as functional.
Series [8] can be described thus: Cytotoxicity against Homo sapiens (human) MT4 cells after 5 days by MTT assay. Format: cell-based. A general note: Tetrazolium dyes change colour on reduction, which living cells bring about.
Series [9] relates to Human immunodeficiency virus 2. In words: Antiviral activity against Human immunodeficiency virus type 2 (ISOLATE ROD) infected MT4 cells assessed as inhibition of virus-induced cytopathogenicity after 5 days by MTT assay. It is filed as functional, organism-based. As to conditions: Human immunodeficiency virus 2, ISOLATE ROD, MT4, 120 h.
Series [10] concerns Mycobacterium tuberculosis. Put plainly: Growth inhibition of Mycobacterium tuberculosis H37Rv at MIC after 28 days by Lowenstein-Jensen agar method. It is filed as functional.
The nature of series [11]: Selectivity index, ratio of CC50 for human MT4 cells to IC50 for HIV2 ROD. It is filed as functional.
Series [12] deals with Candida albicans. In words: Antifungal activity against Candida albicans MTCC 227 after overnight incubation by broth microdilution method. Format: functional.
Series [13] concerns Aspergillus clavatus. Put plainly: Antifungal activity against Aspergillus clavatus MTCC 323 after overnight incubation by broth microdilution method. Format: functional.
The subject of series [14] is Streptococcus pyogenes. In words: Antibacterial activity against Streptococcus pyogenes MTCC 443 after overnight incubation by broth microdilution method. It is filed as functional.

SMILES strings stand for the structures. Values after ≈ are worked out from the molar mass of the structure shown.

The term MIC denotes the lowest concentration that inhibits growth of the organism. Higher therefore signals weaker potency. What is called MIC99 is the lowest concentration that inhibits either 99% of growth or 99% of the strains tested, depending on the study. A high value points to weaker potency. A word on the IC50: it is the point on the concentration scale where inhibition reaches its midpoint. By CC50 is commonly meant the concentration giving 50% cytotoxicity. Read a high CC50 as lower toxicity to the cells. Regarding `Clc1ccc(-c2nnc(-c3cccnc3)o2)cc1`, it took 500 µg/mL (≈ 1940 µM) to inhibit growth in series [1] (MIC). In addition, the MIC99 in [2] was 1000 µg/mL (≈ 3880 µM); in [5], 200 µg/mL (≈ 776 µM); in series [6], 500 µg/mL (≈ 1940 µM); in series [7], 500 µg/mL (≈ 1940 µM); in [12], 500 µg/mL (≈ 1940 µM); in series [13], 1000 µg/mL (≈ 3880 µM). Further, the MIC99 in series [14] was found to be 250 µg/mL (≈ 970 µM). The “Ratio CC50/IC50” value in series [3] and in [11] was less than 1 each time. Moreover, the IC50 in series [4] and in series [9] was greater than 4.49 µg/mL each time. Moreover, in series [8], it took 4.49 µg/mL (≈ 17.4 µM) to reach half-maximal cytotoxicity (CC50 at 120 h). In series [10], the “growth inhibition (GI)” value was found to be 98%.

For the compound `Fc1ccc2nc(Nn3c(-c4ccc(Cl)cc4)nnc3-c3cccnc3)sc2c1`, in series [1], inhibition of growth (MIC) required 62.5 µg/mL (≈ 148 µM). The MIC99 in series [2] stood at 500 µg/mL (≈ 1180 µM); in series [5], 250 µg/mL (≈ 591 µM); in [6], 500 µg/mL (≈ 1180 µM); in series [7], 62.5 µg/mL (≈ 148 µM); in [12], 200 µg/mL (≈ 473 µM); in series [13], 500 µg/mL (≈ 1180 µM). In addition, in series [14], the MIC99 is 500 µg/mL (≈ 1180 µM). The “Ratio CC50/IC50” value in series [3] and in [11] was less than 1 in each case. Moreover, the IC50 in series [4] and in [9] was greater than 92.9 µg/mL in each case. This compound came in with a CC50 at 120 h in series [8] of 92.9 µg/mL (≈ 220 µM). The “growth inhibition (GI)” value in series [10] came to 98%.

For `Clc1ccc(-c2nnc(-c3cccnc3)n2Nc2nc3ccc(Br)cc3s2)cc1`, in series [1], the lowest concentration to inhibit growth (MIC) was 500 µg/mL (≈ 1030 µM). In addition, the MIC99 came out at 500 µg/mL (≈ 1030 µM) in series [2]; 500 µg/mL (≈ 1030 µM) in [5]; 500 µg/mL (≈ 1030 µM) in series [6]; 500 µg/mL (≈ 1030 µM) in series [7]; 100 µg/mL (≈ 207 µM) in series [12]; 1000 µg/mL (≈ 2070 µM) in [13]. The MIC99 in [14] turned out to be 1000 µg/mL (≈ 2070 µM). The “Ratio CC50/IC50” value in series [3] and in [11] was less than 1 each time. Moreover, the half-maximal inhibitory concentration (IC50) in series [4] and in series [9] was greater than 29.6 µg/mL throughout. Further, the CC50 at 120 h in series [8] worked out at 29.6 µg/mL (≈ 61.2 µM). Moreover, the “growth inhibition (GI)” value in series [10] was determined as 96%.

In turn, `O=[N+]([O-])c1ccc2nc(Nn3c(-c4ccc(Cl)cc4)nnc3-c3cccnc3)sc2c1` came in with an MIC in series [1] of 500 µg/mL (≈ 1110 µM). Besides, the MIC99 in [2] is 500 µg/mL (≈ 1110 µM); in series [5], 125 µg/mL (≈ 278 µM); in series [6], 250 µg/mL (≈ 556 µM); in series [7], 125 µg/mL (≈ 278 µM); in series [12], 500 µg/mL (≈ 1110 µM); in series [13], greater than 1000 µg/mL. Moreover, in series [14], the MIC99 was found to be 100 µg/mL (≈ 222 µM). Moreover, the “Ratio CC50/IC50” value in [3] and in series [11] was less than 1 each time. The IC50 in series [4] and in series [9] was greater than 62.1 µg/mL in each case. Further, the CC50 at 120 h in series [8] is 62.1 µg/mL (≈ 138 µM). The “growth inhibition (GI)” value in series [10] was 98%.

In [1], `Cc1ccc2nc(Nn3c(-c4ccc(Cl)cc4)nnc3-c3cccnc3)sc2c1` came in with an MIC of 50 µg/mL (≈ 119 µM). Further, the MIC99 in series [2] was 1000 µg/mL (≈ 2390 µM); in series [5], 500 µg/mL (≈ 1190 µM); in [6], 500 µg/mL (≈ 1190 µM); in [7] it was 500 µg/mL (≈ 1190 µM); in series [12], 1000 µg/mL (≈ 2390 µM); in series [13] it was 1000 µg/mL (≈ 2390 µM). This compound also gave an MIC99 in [14] of 500 µg/mL (≈ 1190 µM). The “Ratio CC50/IC50” value in [3] and in series [11] was less than 1 throughout. Besides, the half-maximal inhibitory concentration (IC50) in [4] and in series [9] was greater than 75.5 µg/mL throughout. In series [8], this compound yielded a cytotoxic concentration (CC50) at 120 h of 75.5 µg/mL (≈ 180 µM). Also, the “growth inhibition (GI)” value in series [10] amounted to 95%.

`COc1ccc2nc(Nn3c(-c4ccc(Cl)cc4)nnc3-c3cccnc3)sc2c1`: the MIC in [1] came to 500 µg/mL (≈ 1150 µM). The MIC99 was found to be 500 µg/mL (≈ 1150 µM) in [2]; 500 µg/mL (≈ 1150 µM) in series [5]; 500 µg/mL (≈ 1150 µM) in series [6]; 250 µg/mL (≈ 575 µM) in [7]; 250 µg/mL (≈ 575 µM) in series [12]; 500 µg/mL (≈ 1150 µM) in series [13]. Moreover, the MIC99 in [14] stood at 500 µg/mL (≈ 1150 µM). Moreover, the “Ratio CC50/IC50” value in series [3] and in series [11] was less than 1 throughout. The half-inhibitory concentration (IC50) in series [4] and in series [9] was greater than 66.8 µg/mL each time. Besides, the CC50 at 120 h in series [8] turned out to be 66.8 µg/mL (≈ 154 µM). Also, in series [10], the “growth inhibition (GI)” value is recorded as 98%.

Consider `Clc1ccc(-c2nnc(-c3cccnc3)n2Nc2nc3ccc(Cl)cc3s2)cc1`, for which the minimal inhibitory concentration (MIC) in [1] amounted to 250 µg/mL (≈ 569 µM). Also, the MIC99 was found to be 500 µg/mL (≈ 1140 µM) in series [2]; 250 µg/mL (≈ 569 µM) in series [5]; 1000 µg/mL (≈ 2280 µM) in [6]; 500 µg/mL (≈ 1140 µM) in [7]; 100 µg/mL (≈ 228 µM) in [12]; 1000 µg/mL (≈ 2280 µM) in series [13]. The same compound gave an MIC99 in series [14] of 500 µg/mL (≈ 1140 µM). The “Ratio CC50/IC50” value in [3] and in series [11] was less than 1 each time. Further, the half-inhibitory concentration (IC50) in series [4] and in series [9] was greater than 54.3 µg/mL each time. Moreover, half-maximal cytotoxicity in series [8] (CC50 at 120 h) was put at 54.3 µg/mL (≈ 124 µM). Moreover, the “growth inhibition (GI)” value in series [10] was found to be 96%.

For `Cc1cccc2sc(Nn3c(-c4ccc(Cl)cc4)nnc3-c3cccnc3)nc12`, the MIC in [1] was 50 µg/mL (≈ 119 µM). Besides, the MIC99 in series [2] was 500 µg/mL (≈ 1190 µM); in [5], 100 µg/mL (≈ 239 µM); in series [6] it was 500 µg/mL (≈ 1190 µM); in series [7] it was 250 µg/mL (≈ 597 µM); in series [12], 200 µg/mL (≈ 477 µM); in series [13], 500 µg/mL (≈ 1190 µM). This compound also showed an MIC99 in series [14] of 1000 µg/mL (≈ 2390 µM). Further, the “Ratio CC50/IC50” value in series [3] and in [11] was less than 1 each time. For the same compound, the half-maximal inhibitory concentration (IC50) in [4] and in series [9] was greater than 36.4 µg/mL in each case. The CC50 at 120 h in series [8] was determined as 36.5 µg/mL (≈ 87 µM). Moreover, in series [10], the “growth inhibition (GI)” value was determined as 95%.

The values are drawn from ChEMBL document CHEMBL3046062, “Anti-HIV, antimycobacterial and antimicrobial studies of newly synthesized 1,2,4-triazole clubbed benzothiazoles” (Med Chem Res, 2013).
